Calls of active or inactive are those of the source. The rule behind the calls is not given here.
Legend:
RERF-LC-MS = test: Antiproliferative activity against human RERF-LC-MS cells assessed as reduction in cell viability at 50 uM incubated for 72 hrs by cellTiter-glo assay; assay type: functional, cell-based
Bacillus subtilis = test: Antibacterial activity against Bacillus subtilis ATCC 23857; assay type: functional, organism-based
Escherichia coli = test: Antibacterial activity against Escherichia coli ATCC 25922; assay type: functional, organism-based
[1] = test system: Schizosaccharomyces pombe; test: Antifungal activity against Schizosaccharomyces pombe H1374; assay type: functional, organism-based
A549 = test: Antiproliferative activity against human A549 cells assessed as reduction in cell viability at 50 uM incubated for 72 hrs by cellTiter-glo assay; assay type: functional, cell-based
Pseudomonas aeruginosa = test: Antibacterial activity against Pseudomonas aeruginosa PA14; assay type: functional, organism-based
Saccharomyces cerevisiae = test: Antimicrobial activity against Saccharomyces cerevisiae YSD1; assay type: functional, organism-based
NCI-H2228 = test: Antiproliferative activity against human NCI-H2228 cells assessed as reduction in cell viability at 50 uM incubated for 72 hrs by cellTiter-glo assay; assay type: functional, cell-based
NCI-H647 = test: Antiproliferative activity against human NCI-H647 cells assessed as reduction in cell viability at 50 uM incubated for 72 hrs by cellTiter-glo assay; assay type: functional, cell-based
[2] = Stability of compound at pH 8 assessed as half life measured at 0.5 to 92 hrs by LC-UV/MS analysis; assay type: physicochemical; settings: buffer, time 0.5-92 hrs
[3] = Stability of compound at pH 7.5 measured at 0.5 to 92 hrs by LC-UV/MS analysis; assay type: physicochemical; settings: buffer, time 0.5-92 hrs
[4] = Stability of compound at pH 9 assessed as half life measured at 0.5 to 92 hrs by LC-UV/MS analysis; assay type: physicochemical; settings: buffer, time 0.5-92 hrs
[5] = Stability of compound at pH 8.5 assessed as half life measured at 0.5 to 92 hrs by LC-UV/MS analysis; assay type: physicochemical; settings: buffer, time 0.5-92 hrs

## CCCCCC/C=C\CC(=O)N[C@@H](CO)C(=O)N[C@@H](C(=O)N[C@@H](Cc1c[nH]cn1)C(=O)N[C@H](C(=O)N[C@H](CC(C)C)C(=O)N[C@H](C(=O)O)C(C)C)C(C)C)C(C)C
RERF-LC-MS
  Activity: inactive
Bacillus subtilis
  Activity: inactive
Escherichia coli
  Activity: inactive
[1]
  Activity: inactive
A549
  Activity: inactive
Pseudomonas aeruginosa
  Activity: inactive
Saccharomyces cerevisiae
  Activity: inactive
NCI-H2228
  Activity: inactive
NCI-H647
  Activity: inactive

## CCCCCC/C=C\CC(=O)N[C@H]1COC(=O)[C@H](C(C)C)NC(=O)[C@@H](CC(C)C)NC(=O)[C@H](C(C)C)NC(=O)[C@H](Cc2c[nH]cn2)NC(=O)[C@@H](C(C)C)NC1=O
RERF-LC-MS
  Activity: Active
Bacillus subtilis
  Activity: Active
[2]
  half-life: 300 min
Escherichia coli
  Activity: inactive
[3]
  Stability: Stable
[1]
  Activity: Active
[4]
  half-life: 420 min
A549
  Activity: Active
Pseudomonas aeruginosa
  Activity: inactive
Saccharomyces cerevisiae
  Activity: Active
NCI-H2228
  Activity: Active
NCI-H647
  Activity: Active
[5]
  half-life: 1560 min
